How the values were obtained:
[1] = tested on: mouse embryonic fibroblasts (MEFs); assay: qRT-PCR of pancreatic lineage markers during three-stage direct reprogramming of MEFs; assay type: cell-based; conditions: stage-1 cells, single miRNA transfected, relative to the mimic (FIG. 2a)
Experimental: (§1) MEFs (5×10^4 cells/well per 12-well plate) were transfected using the jetMESSENGER (Polyplus-Transfection, Illkirch, France) reagent according to the manufacturer's instructions. The miRNA to be infected (200 nM) (QIAGEN, Hilden, Germany) was diluted in mRNA buffer and 2 μL of the jetMESSENGER reagent was added thereto. The mixture was incubated at room temperature for 20 minutes and then added to MEFs, and 24 hours thereafter, a stage-specific medium was added thereto.
For direct reprogramming of cells, knockout DMEM (KO-DMEM) (Gibco) was used as a basal medium. The knockout DMEM includes 15% knockout serum replacement (Gibco, Thermo Fisher Scientific, Inc., Waltham, MA, USA), 5% FBS (exosome depleted), 1% GlutaMax (Gibco, Thermo Fisher Scientific, Inc., Waltham, MA, USA), 1% Non-Essential Amino Acids (NEAA, Gibco, Thermo Fisher Scientific, Inc., Waltham, MA, USA), and 0.5 mM β-ME (Sigma Aldrich, Inc., Saint Louis, MO, USA).
The three-stage differentiation protocol of the present disclosure is as follows: Stage 1, differentiation from MEFs into pancreatic endoderm cells; Stage 2, differentiation of pancreatic endoderm cells into pancreatic progenitor-like cells; Stage 3, differentiation from pancreatic progenitor-like cells into beta-cell-like cells.
First, 5×10^4 MEF cells/well were seeded in a 12-well tissue culture plate of DMEM containing 10% FBS and 1×P/S for one day. The next day, a Stage 1 differentiation medium was added thereto. The Stage 1 differentiation medium contains 1 μM Bix-01294 (MedchemExpress, Monmouth Junction, NJ, USA), 280 μM 2-phospho-L-ascorbic acid (pVC) Sigma Aldrich, Inc., Saint Louis, MO, USA), and 50 ng/mL activin A (R&D Systems, Minneapolis, MI, USA). After addition of the medium, cells were maintained for 6 days. The medium used was replaced every 3 days. After 6 days, a Stage 2 differentiation medium was added for 4 days. […]
Statistical significance was determined by a two-way, paired student's t-test. […]

[2] = tested on: mouse embryonic fibroblasts (MEF); assay: Proliferation / morphology of MEFs by bright field microscopy in stage-1 differentiation; assay type: cell-based; conditions: after 48 hours (FIG. 3c)
Experimental: FIGS. 3a to 3c confirm the proliferative ability of mouse embryonic fibroblasts (MEF) following transfection with a miRNA mimic and combinations of miRNAs (miR-127, miR-709, and miR-19b) of the present disclosure.
as §1

Substance | induction of Pdx1 expression [1] [fold] | cell proliferation [2]
miR-709: microRNA, SEQ ID NO: 2, GGAGGCAGAGGCAGGAGGA (listed as RNA, chemistry not given here) | 3.2 | –
miR-19b: microRNA, SEQ ID NO: 5, ugugcaaauccaugcaaaacuga (UGUGCAAAUCCAUGCAAAACUGA; listed as RNA, chemistry not given here) | 1.6 | highest cell proliferation
miR-127: microRNA, SEQ ID NO: 1, CUGAAGCUCAGAGGGCUCUGAU | 3.9 | –

— patent US20230364153A1, “METHOD FOR DIRECT REPROGRAMMING FROM SOMATIC CELLS INTO PANCREATIC BETA CELLS BY USING MICRORNA, AND DIFFERENTIATION COMPOSITION” (Research & Business Foundation Sungkyunkwan University, priority 2020, published 2023)
